Measurements as given in US7510830B2, “Cancer treatment by combination therapy” (Cancer Research Technology Limited, priority 2000, dated 2009).
Entries after “also recorded” stand apart in the source; their conditions may differ. Read-outs that look alike come from different tables or passages of the source.

Assays:
[1] = tested on: TNF production in human peripheral blood leucocytes (HPBL); assay type: cell-based
Experimental: Partially purified buffy coats were purchased from Auckland Blood Centre and divided into 15-ml, aliquots in 50-ml centrifuge tubes (2070 Conical Tubes, Becton Dickinson Labware, N.J., USA). HPBL in tissue culture dishes (10 ml; 10^7 cells/ml) were incubated overnight in α-MEM culture medium supplemented with FCS (10% v/v), streptomycin sulphate (100 μg/ml) and penicillin-G (100 units/ml). All extraction operations were carried out at 7° C. to prevent clotting. Unsupplemented α-MEM medium was added to 30 ml and a 10-ml layer of Ficoll-Paque PLUS was slowly added to the bottom of the tubes. After centrifugation at 300 g for 30 min the upper layer was removed and the HPBL layer was carefully drawn off into a fresh 50-ml centrifuge tube. The volume was adjusted to 50 ml, the cells were centrifuged at 300 g, and HPBL were resuspended in supplemented α-MEM medium and added (1 ml/well) to 24 well plates (Nunc, Kamstrup, Roskilde, Denmark). Agents (made up at twice the final concentration) were added and plates were incubated for the appropriate times in 5% CO2air at 37° C. overnight. DMXAA sodium salt (this laboratory) was dissolved in medium and protected from light FAA (National Cancer Institute, USA) was dissolved in 5% (w/v) sodium bicarbonate and diluted with medium. Interleukin-laipha (R&D Systems, USA), okadaic acid, LPS and deacylated LPS (Sigma Chemical Co., USA) were dissolved in α-MEM, filter-sterilised and used immediately. The MEM-18 mouse anti-human CD14 IgG antibody was obtained from Sanbio bv, am Uden, Netherlands, and was freed from azide before use by ultrafiltration.
After the appropriate incubation period of HPBL with drug, supernatants were either used immediately or stored at −20° C. TNF standards were prepared by making serial dilutions of the TNF stock solution in supplemented culture media (concentration range 10-10,000 pg/ml). ELISA plates were made using the OptEIA Human TNF-alpha Set (Pharmingen, San Diego, Calif., USA). TNF standards and samples were added to the ELISA plates and the assays were carried out according to the makers' directions.

cancer = conditions: humans; cited from earlier work
[2] = cited from earlier work
murine tumours = conditions: cited from earlier work
[3] = tested on: TNF production in murine leucocytes; experiment: TNF production in cultured murine leucocytes in vitro (8 h, ELISA); assay type: cell-based, mouse
Experimental: The effect of DMXAA on cultured murine leucocytes has also been investigated using LPS as a control. TNF was measured by enzyme-linked immunosorbent assay after 8 h.
Blood samples for extraction of leucocytes were taken by cardiac puncture of halothane-anaesthetised mice into 1-ml syringes containing ACD-A anticoagulant (0.1 ml). All extraction operations were carried out at 7° C. to prevent clotting. Samples were pooled and unsupplemented α-MEM was added to 30 ml and a 10-ml layer of Ficoll-Paque PLUS™ was slowly added to the bottom of the tubes. After centrifugation at 300×g for 30 min the upper layer was removed and the leucocyte layer was carefully drawn off into a fresh 50-ml centrifuge tube. The volume was adjusted to 50 ml with unsupplemented growth medium, the cells were centrifuged at 300×g, and the leucocytes were resuspended at 10^7 cells/ml in α-MEM supplemented with foetal bovine serum (10% v/v), streptomycin sulphate (100 μg/ml) and penicillin-G (100 units/ml).
Cells were added either to 24 well plates (1 ml/well; Nunc, Kamstrup, Roskilde, Denmark) or to 100 mm Petri dishes (10 ml/plate) and incubated in 5% CO2/air at 37° C. overnight. Agents (made up at twice the final concentration in growth medium) were added and plates were further incubated for 8 hours. After the appropriate incubation period of HPBL with drug in 24-well plates, supernatants were removed and either assayed immediately or stored at −20° C.
TNF standards were prepared by making serial dilutions of the TNF stock solution in supplemented culture media (concentration range 10-10,000 pg/ml). ELISA (enzyme-linked immunosorbent assay) plates were made using the OptEIA Human TNF-alpha-Set (Pharmingen, San Diego, Calif., USA). TNF standards and samples were added to the ELISA plates and the assays were carried out according to the manufacturer's directions.

serum TNF in C57BL mice = experiment: In vivo serum TNF in mice with or without antibiotic pre-treatment; design: species or system mouse
Experimental: To test the hypothesis that low concentrations of LPS synergise with DMXAA for in vivo TNF production, mice were treated orally with antibiotics for […] and then treated with 25 mg/kg DMXAA. TNF levels were measured […]. C57BL mice were either untreated, or treated for 4 days prior to DMXAA with a mixture of antibiotics (cephalocin 2 g/l and neomycin 2 g/l in the drinking water). Mice received a single i.p. dose of DMXAA (25 mg/kg) and blood was collected by cardiac puncture of halothane-anaesthetised mice after 3 hours. Blood from each mouse was transferred to individual microcentrifuge tubes and allowed to clot overnight on ice before centrifugation at 2000×g for 20 minutes at 4° C. If clotting was not complete the sample was allowed to stand on ice for a further 2 hours, after which it was re-centrifuged. Serum was drawn off the top of the blood samples and stored at −20° C. until assay of TNF content. […] ELISA (enzyme-linked immunosorbent assay) plates were made using the OptEIA Human TNF-alpha-Set (Pharmingen, San Diego, Calif., USA). TNF standards and samples were added to the ELISA plates and the assays were carried out according to the manufacturer's directions.

Molecule: C=C1[C@@H](O)[C@@H]2O[C@]3(CC[C@H](/C=C/[C@@H](C)[C@@H]4CC(C)=C[C@@]5(O[C@H](C[C@@](C)(O)C(=O)O)CC[C@H]5O)O4)O3)CC[C@H]2O[C@@H]1[C@@H](O)C[C@H](C)[C@H]1O[C@@]2(CCCCO2)CC[C@H]1C [OA, okadaic acid, reference compound]
- TNF synthesis ([1]; OA alone at concentrations higher than 20 ng/ml, HPBL): induced TNF synthesis
- TNF induction ([1]; OA alone at concentrations up to 20 ng/ml, HPBL): no substantial induction of TNF

Molecule: Cc1ccc2c(=O)c3cccc(CC(=O)O)c3oc2c1C [DMXAA, 5,6-dimethylxanthenone-4-acetic acid]
- clinical anti-cancer activity (cancer): marginal clinical anti-cancer activity
- water solubility [2]: highly water soluble
- TNF production [1]: large increase in TNF production; also recorded: induced a higher degree of TNF production
- induction of TNF by low concentrations of LPS ([1]; DMXAA added to LPS, peripheral blood monocytes): unexpectedly stimulated
- induction of TNF by antibody (MEM-18) to CD14 ([1]; DMXAA added to anti-CD14 antibody, peripheral blood monocytes): unexpectedly stimulated
- TNF induction ([1]; DMXAA alone, 800 μg/ml, HPBL): no substantial induction of TNF; also recorded: no substantial effect
- TNF induction ([1]; DMXAA alone, cultured HPBL, concentration not given): little effect on TNF induction
- increase in induction of TNF compared to IL-1 alone ([1]; DMXAA coadministered with IL-1, HPBL (FIG. 4)): up to 56 fold
- antitumour activity (murine tumours): significant antitumour activity
- TNF production ([3]; DMXAA (800 μg/ml) co-incubated with anti-CD14 antibody (10 μl/well), murine leucocytes (FIG. 7)): high level of TNF production that was even greater than that caused by LPS
- TNF production ([3]; DMXAA (800 μg/ml) coincubated with dLPS (500 μg/ml), murine leucocytes (FIG. 7)): significant (p<0.001) elevation of TNF production
- TNF production ([3]; DMXAA alone (800 μg/ml), murine leucocytes, 8 h (FIG. 7)): did not significantly increase TNF production
- serum TNF (serum TNF in C57BL mice; DMXAA 25 mg/kg i.p. following antibiotic treatment, versus mice not receiving antibiotics (FIG. 8)): increased serum TNF but the increase was significantly smaller (p<0.001)
- serum TNF concentrations (serum TNF in C57BL mice; DMXAA 25 mg/kg single i.p. dose, mice not receiving antibiotics (FIG. 8)): substantially increased serum TNF concentrations

Molecule: CCCCCCCCCCCCCC(=O)O[C@@H]1[C@@H](C)[C@@]2(O)[C@@H](C=C(CO)C[C@]3(O)C(=O)C(C)=C[C@@H]23)[C@@H]2C(C)(C)[C@]12OC(C)=O [PMA, phorbol-12-myristate-13-acetate, reference compound]
- TNF synthesis ([1]; PMA alone at concentrations higher than 20 ng/ml, HPBL): induced TNF synthesis
- TNF induction ([1]; PMA alone at concentrations up to 20 ng/ml, HPBL): no substantial induction of TNF

B1: IL-1: interleukin-1 alpha, inflammatory cytokine (R&D Systems) (protein, UniProt P01583 113-271, looked up)
Interleukin-1 alpha: SAPFSFLSNVKYNFMRIIKYEFILNDALNQSIIRANDQYLTAAALHNLDEAVKFDMGAYKSSKDDAKITVILRISKTQLYVTAQDEDQPVLLKEMPEIPKTITGSETNLLFFWETHGTKNYFTSVAHPNLFIATKQDYWVCLAGGPPSITDFQILENQA
- TNF induction ([1]; IL-1 alone, HPBL (FIG. 4)): capable of inducing TNF
